Measurements published in patent US6399541B1, “Substituted 2,4-diamino-1,3,5-triazines as herbicides” (Bayer Aktiengesellschaft, priority 1997, dated 2002).
One block for each molecule: values may come before it.

What was measured:
Alopecurus = test: Pre-emergence test/greenhouse; type: in vivo; details: after three weeks
Protocol: (§1) Solvent: 5 parts by weight of acetone
(§2) Emulsifier: 1 part by weight of alkylaryl polyglycol ether
(§3) To produce a suitable preparation of active compound, 1 part by weight of active compound is mixed with the stated amount of solvent, the stated amount of emulsifier is added and the concentrate is diluted with water to the desired concentration.
(§4) Seeds of the test plants are sown in normal soil. After about 24 hours, the soil is sprayed with the preparation of active compound in such a way that the particular amounts of active compound desired are employed per unit area. The concentration of the spray liquor is chosen such that the particular amounts of active compound desired are applied in 1000 l of water/ha.
(§5) After three weeks, the degree of damage to the plants is assessed in % damage in comparison to the development of the untreated control.
(§6) 0%=no effect (as untreated control) 100%=total destruction

Avena fatua = test: Pre-emergence test/greenhouse; type: in vivo; details: after three weeks
Protocol: as §1, §2, §3, §4, §5, §6

Cassia [1] = test: Pre-emergence test/greenhouse; type: in vivo; details: 250 g of ai./ha, after three weeks
Protocol: as §1, §2, §3, §4, §5, §6

Ipomoea [2] = test: Pre-emergence test/greenhouse; type: in vivo; details: 250 g of ai./ha, after three weeks
Protocol: as §1, §2, §3, §4, §5, §6

Setaria [3] = test: Pre-emergence test/greenhouse; type: in vivo; details: after three weeks
Protocol: as §1, §2, §3, §4, §5, §6

Viola = test: Pre-emergence test/greenhouse; type: in vivo; details: 250 g of ai./ha, after three weeks
Protocol: as §1, §2, §3, §4, §5, §6

Barley [4] = test: Post-emergence test/greenhouse; type: in vivo; details: 125 g of ai./ha, after three weeks
Protocol: as §1, §2, §3
as §4, with “Test plants which have a height” for “Seeds”, “5 to 15 cm” for “the test plants”, “are” for “are sown in normal soil. After about 24 hours, the soil is”, “applied” for “employed”
as §5
(§7) 0%=no effect (as untreated control)

Cassia [5] = test: Post-emergence test/greenhouse; type: in vivo; details: after three weeks
Protocol: as §1, §2, §3
as §4, with “Test plants which have a height” for “Seeds”, “5 to 15 cm” for “the test plants”, “are” for “are sown in normal soil. After about 24 hours, the soil is”, “applied” for “employed”
as §5, §7

Ipomoea [6] = test: Post-emergence test/greenhouse; type: in vivo; details: after three weeks
Protocol: as §1, §2, §3
as §4, with “Test plants which have a height” for “Seeds”, “5 to 15 cm” for “the test plants”, “are” for “are sown in normal soil. After about 24 hours, the soil is”, “applied” for “employed”
as §5, §7

Veronica [7] = test: Post-emergence test/greenhouse; type: in vivo; details: after three weeks
Protocol: as §1, §2, §3
as §4, with “Test plants which have a height” for “Seeds”, “5 to 15 cm” for “the test plants”, “are” for “are sown in normal soil. After about 24 hours, the soil is”, “applied” for “employed”
as §5, §7

Wheat = test: Post-emergence test/greenhouse; type: in vivo; details: after three weeks
Protocol: as §1, §2, §3
as §4, with “Test plants which have a height” for “Seeds”, “5 to 15 cm” for “the test plants”, “are” for “are sown in normal soil. After about 24 hours, the soil is”, “applied” for “employed”
as §5, §7

weeds [8] = test: Pre-emergence test; type: in vivo; details: cf. Table A
Protocol: as §1, §2, §3, §4, §5, §6

weeds [9] = test: Post-emergence test; type: in vivo; details: cf. Table B
Protocol: as §1, §2, §3
as §4, with “Test plants which have a height” for “Seeds”, “5 to 15 cm” for “the test plants”, “are” for “are sown in normal soil. After about 24 hours, the soil is”, “applied” for “employed”
as §5, §7

Abutilon = test: Pre-emergence test/greenhouse; type: in vivo; details: after three weeks
Protocol: as §1, §2, §3, §4, §5, §6

Amaranthus = test: Pre-emergence test/greenhouse; type: in vivo; details: after three weeks
Protocol: as §1, §2, §3, §4, §5, §6

Echinochloa = test: Post-emergence test/greenhouse; type: in vivo; details: 125 g of ai./ha, after three weeks
Protocol: as §1, §2, §3
as §4, with “Test plants which have a height” for “Seeds”, “5 to 15 cm” for “the test plants”, “are” for “are sown in normal soil. After about 24 hours, the soil is”, “applied” for “employed”
as §5, §7

Matricaria [10] = test: Post-emergence test/greenhouse; type: in vivo; details: 125 g of ai./ha, after three weeks
Protocol: as §1, §2, §3
as §4, with “Test plants which have a height” for “Seeds”, “5 to 15 cm” for “the test plants”, “are” for “are sown in normal soil. After about 24 hours, the soil is”, “applied” for “employed”
as §5, §7

Setaria [11] = test: Post-emergence test/greenhouse; type: in vivo; details: 125 g of ai./ha, after three weeks
Protocol: as §1, §2, §3
as §4, with “Test plants which have a height” for “Seeds”, “5 to 15 cm” for “the test plants”, “are” for “are sown in normal soil. After about 24 hours, the soil is”, “applied” for “employed”
as §5, §7

Xanthium [12] = test: Post-emergence test/greenhouse; type: in vivo; details: 125 g of ai./ha, after three weeks
Protocol: as §1, §2, §3
as §4, with “Test plants which have a height” for “Seeds”, “5 to 15 cm” for “the test plants”, “are” for “are sown in normal soil. After about 24 hours, the soil is”, “applied” for “employed”
as §5, §7

Barley [13] = test: Pre-emergence test/greenhouse; type: in vivo; details: 250 g of ai./ha, after three weeks
Protocol: as §1, §2, §3, §4, §5, §6

Chenopodium = test: Pre-emergence test/greenhouse; type: in vivo; details: 125 g of ai./ha, after three weeks
Protocol: as §1, §2, §3, §4, §5, §6

Cotton = test: Pre-emergence test/greenhouse; type: in vivo; details: 250 g of ai./ha, after three weeks
Protocol: as §1, §2, §3, §4, §5, §6

Datura = test: Pre-emergence test/greenhouse; type: in vivo; details: 125 g of ai./ha, after three weeks
Protocol: as §1, §2, §3, §4, §5, §6

Galium = test: Pre-emergence test/greenhouse; type: in vivo; details: 1000 g of ai./ha, after three weeks
Protocol: as §1, §2, §3, §4, §5, §6

Lolium = test: Pre-emergence test/greenhouse; type: in vivo; details: 250 g of ai./ha, after three weeks
Protocol: as §1, §2, §3, §4, §5, §6

Matricaria [14] = test: Pre-emergence test/greenhouse; type: in vivo; details: 125 g of ai./ha, after three weeks
Protocol: as §1, §2, §3, §4, §5, §6

Reapseed = test: Pre-emergence test/greenhouse; type: in vivo; details: after three weeks
Protocol: as §1, §2, §3, §4, §5, §6

Solanum [15] = test: Pre-emergence test/greenhouse; type: in vivo; details: 125 g of ai./ha, after three weeks
Protocol: as §1, §2, §3, §4, §5, §6

Sorghum = test: Pre-emergence test/greenhouse; type: in vivo; details: 250 g of ai./ha, after three weeks
Protocol: as §1, §2, §3, §4, §5, §6

Veronica [16] = test: Pre-emergence test/greenhouse; type: in vivo; details: 250 g of ai./ha, after three weeks
Protocol: as §1, §2, §3, §4, §5, §6

Xanthium [17] = test: Pre-emergence test/greenhouse; type: in vivo; details: 1000 g of ai./ha, after three weeks
Protocol: as §1, §2, §3, §4, §5, §6

Polygonum = test: Post-emergence test/greenhouse; type: in vivo; details: 60 g of ai./ha, after three weeks
Protocol: as §1, §2, §3
as §4, with “Test plants which have a height” for “Seeds”, “5 to 15 cm” for “the test plants”, “are” for “are sown in normal soil. After about 24 hours, the soil is”, “applied” for “employed”
as §5, §7

Solanum [18] = test: Post-emergence test/greenhouse; type: in vivo; details: 60 g of ai./ha, after three weeks
Protocol: as §1, §2, §3
as §4, with “Test plants which have a height” for “Seeds”, “5 to 15 cm” for “the test plants”, “are” for “are sown in normal soil. After about 24 hours, the soil is”, “applied” for “employed”
as §5, §7

SMILES: CC(Nc1nc(N)nc(C(C)(C)F)n1)c1ccccc1 (racemic) [Example 13]
degree of damage, Alopecurus (Alopecurus; 250 g of ai./ha): 90%
degree of damage, Avena fatua (Avena fatua; 250 g of ai./ha): 90%
degree of damage, Cassia (Cassia [1]): 100%
degree of damage, Ipomoea (Ipomoea [2]): 80%
degree of damage, Setaria (Setaria [3]; 250 g of ai./ha): 80%
degree of damage, Viola (Viola): 100%
degree of damage, Barley (Barley [4]): 0%
degree of damage, Cassia (Cassia [5]; 125 g of ai./ha): 95%
degree of damage, Ipomoea (Ipomoea [6]; 125 g of ai./ha): 100%
degree of damage, Veronica (Veronica [7]; 125 g of ai./ha): 100%
degree of damage, Wheat (Wheat; 125 g of ai./ha): 0%
action against weeds compared with known compound (A) (weeds [8]): considerably strong action against weeds than the known compound (A)
activity against weeds compared with known compound (A) (weeds [9]): considerably stronger activity against weeds than the known compound (A)

melting point: 118 °C
SMILES: CCC(Nc1nc(NC(C)=O)nc(C(C)F)n1)c1ccccc1 (racemic) [Example 2, 2-acetylamino-4-(1-fluoro-ethyl)-6-(1-phenyl-propylamino)-1,3,5-triazine]
degree of damage, Abutilon (Abutilon; 1000 g of ai./ha): 100%
degree of damage, Alopecurus (Alopecurus; 1000 g of ai./ha): 90%
degree of damage, Amaranthus (Amaranthus; 1000 g of ai./ha): 100%
degree of damage, Setaria (Setaria [3]; 1000 g of ai./ha): 70%
degree of damage, Cassia (Cassia [5]; 125 g of ai./ha): 100%
degree of damage, Echinochloa (Echinochloa): 80%
degree of damage, Ipomoea (Ipomoea [6]; 125 g of ai./ha): 100%
degree of damage, Matricaria (Matricaria [10]): 95%
degree of damage, Setaria (Setaria [11]): 80%
degree of damage, Veronica (Veronica [7]; 125 g of ai./ha): 95%
degree of damage, Xanthium (Xanthium [12]): 80%
action against weeds compared with known compound (A) (weeds [8]): considerably strong action against weeds than the known compound (A)
activity against weeds compared with known compound (A) (weeds [9]): considerably stronger activity against weeds than the known compound (A)

SMILES: CC(Nc1nc(N)nc(C(F)(F)F)n1)c1ccccc1 (stereo not drawn) [(A), 2-Amino-4-(1-phenyl-ethylamino)-6-trifluoromethyl-1,3,5-triazine, reference compound]
degree of damage, Abutilon (Abutilon; 250 g of ai./ha): 0%
degree of damage, Abutilon (Abutilon; 1000 g of ai./ha): 0%
degree of damage, Alopecurus (Alopecurus; 250 g of ai./ha): 30%
degree of damage, Alopecurus (Alopecurus; 1000 g of ai./ha): 30%
degree of damage, Amaranthus (Amaranthus; 125 g of ai./ha): 40%
degree of damage, Amaranthus (Amaranthus; 250 g of ai./ha): 80%
degree of damage, Amaranthus (Amaranthus; 1000 g of ai./ha): 70%
degree of damage, Avena fatua (Avena fatua; 250 g of ai./ha): 0%
degree of damage, Avena fatua (Avena fatua; 1000 g of ai./ha): 0%
degree of damage, Barley (Barley [13]): 0%
degree of damage, Cassia (Cassia [1]): 20%
degree of damage, Chenopodium (Chenopodium): 20%
degree of damage, Cotton (Cotton): 0%
degree of damage, Datura (Datura): 0%
degree of damage, Galium (Galium): 60%
degree of damage, Ipomoea (Ipomoea [2]): 20%
degree of damage, Lolium (Lolium): 0%
degree of damage, Matricaria (Matricaria [14]): 0%
degree of damage, Reapseed (Reapseed; 125 g of ai./ha): 40%
degree of damage, Reapseed (Reapseed; 250 g of ai./ha): 40%
degree of damage, Setaria (Setaria [3]; 250 g of ai./ha): 0%
degree of damage, Setaria (Setaria [3]; 1000 g of ai./ha): 20%
degree of damage, Solanum (Solanum [15]): 0%
degree of damage, Sorghum (Sorghum): 0%
degree of damage, Veronica (Veronica [16]): 20%
degree of damage, Viola (Viola): 0%
degree of damage, Xanthium (Xanthium [17]): 70%
degree of damage, Barley (Barley [4]): 5%
degree of damage, Cassia (Cassia [5]; 60 g of ai./ha): 40%
degree of damage, Cassia (Cassia [5]; 125 g of ai./ha): 80%
degree of damage, Echinochloa (Echinochloa): 50%
degree of damage, Ipomoea (Ipomoea [6]; 60 g of ai./ha): 80%
degree of damage, Ipomoea (Ipomoea [6]; 125 g of ai./ha): 90%
degree of damage, Matricaria (Matricaria [10]): 60%
degree of damage, Polygonum (Polygonum): 80%
degree of damage, Setaria (Setaria [11]): 50%
degree of damage, Solanum (Solanum [18]): 40%
degree of damage, Veronica (Veronica [7]; 60 g of ai./ha): 70%
degree of damage, Veronica (Veronica [7]; 125 g of ai./ha): 90%
degree of damage, Wheat (Wheat; 60 g of ai./ha): 0%
degree of damage, Wheat (Wheat; 125 g of ai./ha): 0%
degree of damage, Xanthium (Xanthium [12]): 60%
